test: Inhibition of yeast alpha glucosidase at pH 6.8; design: species or system Saccharomyces cerevisiae

Point of comparison: `O=c1c2cc3cc(O)ccc3cc2oc2cc(O)cc(O)c12`, IC50 5.8 µM. Against it:
- OC[C@H]1NC(O)C[C@@H](O)[C@@H]1O (stereo not given in full) — 4.6-fold higher, 26.4 µM
- O=c1c2c(O)cc(O)cc2oc2ccc3ccccc3c12 — 6.9-fold higher, 39.9 µM
- Oc1cc(O)c2c(c1)Oc1ccc3ccccc3c1C2 — 6-fold higher, 34.9 µM
- O=c1c2cc3ccccc3cc2oc2cc(O)cc(O)c12 — 1.6-fold higher, 9.3 µM
- O=c1c2ccccc2oc2cc(O)cc(O)c12 — 28-fold higher, 161 µM
- COc1cc(O)c2c(=O)c3cc4ccccc4cc3oc2c1 — 5.4-fold higher, 31.3 µM
- O=c1c2cc3ccccc3cc2oc2c([N+](=O)[O-])c(O)cc(O)c12 — 3.5-fold higher, 20.1 µM
- O=c1c2cc3cccc(O)c3cc2oc2cc(O)cc(O)c12 — within 1.5-fold, 8 µM
- Oc1cc(O)c2c(c1)Oc1cc3ccccc3cc1C2 — 4.8-fold higher, 27.8 µM

Reference: ChEMBL document CHEMBL1143021, “Synthesis of xanthone derivatives with extended pi-systems as alpha-glucosidase inhibitors: insight into the probable binding mode” (Bioorg Med Chem, 2007)
